Values joined by “and” are separate entries in the source; they are usually repeats but may differ in a detail not shown here. Identical values can stand only once. Inconclusive results and toxic doses are left out. No stated cut-off is given here; in the data, active means T/C of 150% or more; inactive means T/C below 125%.
Test system: L1210 leukemia ip in BDF1 mice, survival T/C
Assay: NCI In Vivo Anticancer Drug Screen. Data for tumor model L1210 Leukemia (intraperitoneal) in B6D2F1 (BDF1) mice
Details: endpoint: mean survival time, higher = longer survival
Procedure, shortened: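 Read-out is survival time, reported as the treated-group measurement over the vehicle-control measurement.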

[1] = dose: 100.0 mg/kg/injection, schedule: Q01DX001 (ip), vehicle: Klucel (hydroxypropylcellulose) (HPC)
[2] = dose: 100.0 mg/kg/injection, schedule: Q04DX003 (ip), vehicle: Klucel (hydroxypropylcellulose) (HPC)
[3] = dose: 200.0 mg/kg/injection, schedule: Q01DX001 (ip), vehicle: Klucel (hydroxypropylcellulose) (HPC)
[4] = dose: 200.0 mg/kg/injection, schedule: Q04DX003 (ip), vehicle: Klucel (hydroxypropylcellulose) (HPC)
[5] = dose: 400.0 mg/kg/injection, schedule: Q01DX001 (ip), vehicle: Klucel (hydroxypropylcellulose) (HPC)
[6] = dose: 400.0 mg/kg/injection, schedule: Q04DX003 (ip), vehicle: Klucel (hydroxypropylcellulose) (HPC)
[7] = dose: 100.0 mg/kg/injection, schedule: Q04DX003 (ip), vehicle: saline with Tween-80
[8] = dose: 200.0 mg/kg/injection, schedule: Q04DX003 (ip), vehicle: saline with Tween-80
[9] = dose: 400.0 mg/kg/injection, schedule: Q04DX003 (ip), vehicle: saline with Tween-80
[10] = dose: 100.0 mg/kg/injection, schedule: Q04DX002 (ip), vehicle: Klucel (hydroxypropylcellulose) (HPC)
[11] = dose: 200.0 mg/kg/injection, schedule: Q04DX002 (ip), vehicle: Klucel (hydroxypropylcellulose) (HPC)
[12] = dose: 400.0 mg/kg/injection, schedule: Q04DX002 (ip), vehicle: Klucel (hydroxypropylcellulose) (HPC)
[13] = dose: 25.0 mg/kg/injection, schedule: Q04DX003 (ip), vehicle: saline
[14] = dose: 100.0 mg/kg/injection, schedule: Q04DX003 (ip), vehicle: saline
[15] = dose: 12.5 mg/kg/injection, schedule: Q04DX003 (ip), vehicle: saline
[16] = dose: 100.0 mg/kg/injection, schedule: Q01DX001 (ip), vehicle: saline
[17] = dose: 200.0 mg/kg/injection, schedule: Q01DX001 (ip), vehicle: saline
[18] = dose: 400.0 mg/kg/injection, schedule: Q01DX001 (ip), vehicle: saline

Measured: T/C

COC(=O)NS(=O)(=O)c1ccco1
inactive: [1] 92 % of control | [2] 100 % of control | [3] 98 % of control | [4] 106 % of control | [5] 101 % of control | [6] 89 % of control

O=C(O)C1C2C=CC(C2)C1C(=O)Nc1ccccn1 (stereo unspecified)
inactive: dose: 50.0 mg/kg/injection, schedule: Q01DX009 (ip), vehicle: saline with Tween-80 104 % of control | dose: 100.0 mg/kg/injection, schedule: Q01DX009 (ip), vehicle: saline with Tween-80 101 % of control | dose: 200.0 mg/kg/injection, schedule: Q01DX009 (ip), vehicle: saline with Tween-80 96 % of control

O=C1CCCCCCCCC(=O)CCCCCCCC1
inactive: [7] 89 % of control | [8] 86 % of control | [9] 100 % of control

O=C(O)c1ccccc1C(=O)N1CCCC1
inactive: [10] 96 % of control | [11] 86 % of control | [12] 93 % of control

Cc1ccc(CCN)cc1C
inactive: [13] 103 % of control | dose: 50.0 mg/kg/injection, schedule: Q04DX003 (ip), vehicle: saline 101 % of control | [14] 101 % of control and 112 % of control

CC(=O)OC1C=CCC2C(=O)C34CC=CC(OC(C)=O)C3(C(=O)c3ccccc3C4=O)C(=O)C12 (stereo unspecified)
inactive: dose: 0.25 mg/kg/injection, schedule: Q04DX003 (ip), vehicle: water 97 % of control | dose: 0.5 mg/kg/injection, schedule: Q04DX003 (ip), vehicle: water 102 % of control | dose: 1.0 mg/kg/injection, schedule: Q04DX003 (ip), vehicle: water 95 % of control | dose: 2.0 mg/kg/injection, schedule: Q04DX003 (ip), vehicle: water 98 % of control | dose: 4.0 mg/kg/injection, schedule: Q04DX003 (ip), vehicle: water 102 % of control | dose: 8.0 mg/kg/injection, schedule: Q04DX003 (ip), vehicle: water 107 % of control | dose: 16.0 mg/kg/injection, schedule: Q04DX003 (ip), vehicle: saline 96 % of control | dose: 16.0 mg/kg/injection, schedule: Q04DX003 (ip), vehicle: water 92 % of control | dose: 32.0 mg/kg/injection, schedule: Q04DX003 (ip), vehicle: saline 98 % of control | dose: 64.0 mg/kg/injection, schedule: Q04DX003 (ip), vehicle: saline 102 % of control

CC(C)(C)NC(=O)C(Cl)(Cl)Cl
inactive: dose: 31.25 mg/kg/injection, schedule: Q01DX009 (ip), vehicle: Klucel (hydroxypropylcellulose) (HPC) 98 % of control | dose: 62.5 mg/kg/injection, schedule: Q01DX009 (ip), vehicle: Klucel (hydroxypropylcellulose) (HPC) 107 % of control | dose: 125.0 mg/kg/injection, schedule: Q01DX009 (ip), vehicle: Klucel (hydroxypropylcellulose) (HPC) 109 % of control | dose: 250.0 mg/kg/injection, schedule: Q01DX009 (ip), vehicle: Klucel (hydroxypropylcellulose) (HPC) 94 % of control

c1cc[n+](CCSCCSCC[n+]2ccccc2)cc1
inactive: dose: 3.12 mg/kg/injection, schedule: Q01DX009 (ip), vehicle: acetone 97 % of control | dose: 3.12 mg/kg/injection, schedule: Q04DX003 (ip), vehicle: saline 106 % of control | dose: 6.25 mg/kg/injection, schedule: Q01DX009 (ip), vehicle: acetone 95 % of control | dose: 6.25 mg/kg/injection, schedule: Q04DX003 (ip), vehicle: saline 101 % of control | dose: 12.5 mg/kg/injection, schedule: Q01DX001 (ip), vehicle: saline 105 % of control | [15] 97 % of control

CCCCn1ccnc1
inactive: [15] 105 % of control | [13] 103 % of control

Nc1ccc(NC(=O)C(=O)O)cc1
inactive: [7] 97 % of control | [8] 88 % of control

COc1ccc(/C=N\NC(=O)N/N=C/c2ccc(OC)c(Br)c2)cc1Br
inactive: dose: 50.0 mg/kg/injection, schedule: Q04DX002 (ip), vehicle: Klucel (hydroxypropylcellulose) (HPC) 106 % of control | [10] 98 % of control and 103 % of control | [11] 88 % of control | [12] 91 % of control

Nc1nc(N)c2ncn(C3CC(O)C(CO)O3)c2n1 (stereo unspecified)
inactive: dose: 50.0 mg/kg/injection, schedule: Q01DX001 (ip), vehicle: saline 96 % of control | [16] 110 % of control | [17] 90 % of control | [18] 96 % of control

CC(C)C1CC(C)(C)c2cc3c(cc2O1)C(C)(C)CC(C(C)C)O3 (stereo unspecified)
inactive: [2] 91 % of control | [4] 106 % of control | [6] 96 % of control

C=CCN(CC=C)CCNc1nc(C(Cl)(Cl)Cl)nc2ccc(Cl)cc12
inactive: [7] 102 % of control | [8] 87 % of control

CCC1([N+](=O)[O-])COCOC1
inactive: dose: 6.25 mg/kg/injection, schedule: Q04DX003 (ip), vehicle: Klucel (hydroxypropylcellulose) (HPC) 96 % of control | dose: 12.5 mg/kg/injection, schedule: Q04DX003 (ip), vehicle: Klucel (hydroxypropylcellulose) (HPC) 111 % of control | dose: 25.0 mg/kg/injection, schedule: Q04DX003 (ip), vehicle: Klucel (hydroxypropylcellulose) (HPC) 96 % of control and 111 % of control

O=C(SCCNC(=O)N1CCCCC1)Sc1ccccc1
inactive: [7] 105 % of control | [8] 101 % of control | [9] 114 % of control

NC(=O)c1cc([N+](=O)[O-])c(N)c([N+](=O)[O-])c1
inactive: dose: 100.0 mg/kg/injection, schedule: Q01DX001 (ip), vehicle: saline with Tween-80 100 % of control | dose: 200.0 mg/kg/injection, schedule: Q01DX001 (ip), vehicle: saline with Tween-80 95 % of control | dose: 400.0 mg/kg/injection, schedule: Q01DX001 (ip), vehicle: saline with Tween-80 100 % of control

COc1ccccc1NNS(=O)(=O)c1cccc([N+](=O)[O-])c1
inactive: dose: 75.0 mg/kg/injection, schedule: Q04DX003 (ip), vehicle: Klucel (hydroxypropylcellulose) (HPC) 104 % of control | [1] 100 % of control | dose: 150.0 mg/kg/injection, schedule: Q04DX003 (ip), vehicle: Klucel (hydroxypropylcellulose) (HPC) 94 % of control | [3] 103 % of control | dose: 300.0 mg/kg/injection, schedule: Q04DX003 (ip), vehicle: Klucel (hydroxypropylcellulose) (HPC) 104 % of control | [5] 105 % of control

Nc1nc(N)c2nc(NCc3ccc(C(=O)NC(CCC(=O)O)C(=O)O)cc3)cnc2n1 (stereo unspecified)
inactive: [16] 100 % of control | dose: 100.0 mg/kg/injection, schedule: Q01DX009 (ip), vehicle: saline 117 % of control | dose: 100.0 mg/kg/injection, schedule: Q04DX002 (ip), vehicle: saline 103 % of control and 105 % of control | [17] 105 % of control | dose: 200.0 mg/kg/injection, schedule: Q01DX009 (ip), vehicle: saline 117 % of control | dose: 200.0 mg/kg/injection, schedule: Q04DX002 (ip), vehicle: saline 103 % of control and 107 % of control | [18] 96 % of control | dose: 400.0 mg/kg/injection, schedule: Q04DX002 (ip), vehicle: saline 107 % of control and 113 % of control

Cc1cc(=O)n(-c2ccccc2)n1C
inactive: [14] 104 % of control | dose: 200.0 mg/kg/injection, schedule: Q04DX003 (ip), vehicle: saline 106 % of control | dose: 400.0 mg/kg/injection, schedule: Q04DX003 (ip), vehicle: saline 106 % of control
